We go through six molecules from patent US12097262B2, “mTORC1 inhibitors” (THE REGENTS OF THE UNIVERSITY OF CALIFORNIA, priority 2014, dated 2024).

Where two headings read alike, the source gives them in different places. Some results are limits rather than exact numbers.

In data set [1] the test system is mTORC1 (pS6 S240/244, P-4EBP1). In words: Western blot analysis in SNU-449 cells (E1010). The class given is cell-based, human. To be noted: 3 hours (FIG. 13B). The procedure:
FIGS. 13A-13B. FIG. 13A: MCF-7 cells were treated for 4 hours with E1035 and M1071 before harvesting. FIG. 13B: SNU-449 cells were treated with 3 hours with E1010 before harvesting. Cells were lysed and blotted for the indicated proteins. M1071 has the narrowest concentration range between mTORC1 and mTORC2 inhibition. The concentration range between mTORC1 and mTORC2 inhibition widens for E1035.
Cell Culture and Western Blot Analysis. Cells were grown in 6-well plates and treated with inhibitor at the indicated concentrations or with vehicle (0.1% DMSO). Treated cells were lysed, and lysates were resolved by SDS-PAGE, transferred to nitrocellulose and blotted. All antibodies were purchased from Cell Signaling Technology.
On the technique in general: A western blot detects proteins with antibodies after separation by electrophoresis.

The next data set relates to SNU-449. In words: Cell viability assay (CellTiter-Glo), SNU-449. To be noted: for inhibition at 10 µM: SNU-449, read-out: % inhibition at 10 μM SNU-449; for EC50: read-out: EC50 (nM) SNU-449. (ATP-based viability assays read luminescence as a measure of living cells.)
A further data set has as its system HCT-15. The data set can be described thus: Cell viability assay (CellTiter-Glo), HCT-15. The data set is classed as cell-based, human. To be noted: for EC50: 72 h after compound treatment.
Data set [2] has as its system TORC1 and TORC2 outputs (p4E-BP1, pS6). In words: Drug washout experiment in SNU-449 cells. The class given is cell-based, human. To be noted: 30 nM for 3 h, then washout. Here is the method: Cellular Signaling Effects of Class mTOR Inhibitors. Cells were seeded in 60 mm cell culture dishes and incubated 1-2 days until 70-90% confluency. Cells were treated with compound solution in DMSO (1000×) and incubated at 37° C. in a 5% CO2 humidified incubator for a given length of time. […] After incubation for more than 1 h with a blocking buffer at room temperature, membranes were labeled with primary antibodies by overnight incubation at 4° C., followed by 1 hour incubation with horseradish peroxidase-conjugated (HRP-conjugated) secondary antibodies at room temperature. […] Nitrocellulose membranes were exposed with SuperSignal® West Pico Chemiluminescent Substrate or Femto Maximum Sensitivity Substrate (Thermo Fisher Scientific Inc., Waltham, MA USA) and signals were recorded on a CL-Xposure film (Thermo Fisher Scientific Inc., Waltham, MA USA).
Drug Washout Experiment. SNU-449 cells were treated with 30 nM of compounds for 3 h. The medium was aspirated out and cells were washed with fresh 10% FBS in RPMI1640 medium. Then, cells were incubated with fresh 10% FBS in RPMI1640 medium at 37° C. for described time period.

A further data set relates to SNU-398. In words: Cell viability assay (CellTiter-Glo), SNU-398. The class given is cell-based, human. As to conditions: for inhibition at 10 µM: read-out: % inhibition at 10 μM SNU-398, 10 μM; for EC50: 72 h after compound treatment.
The test system of a further data set is SNU-182. In words: Cell viability assay (CellTiter-Glo), SNU-182. As to conditions: for inhibition at 10 µM: read-out: % inhibition at 10 μM SNU-182, 10 μM; for EC50: 72 h after compound treatment. The class given is cell-based, human.
Data set [3] is described as follows: Effect on blood glucose level in mice. To be noted: mice (n=3), intraperitoneal, Rapamycin treatment group (5 mg/kg, FIG. 10).
Excerpt: Effect on blood glucose level. […] Blood glucose levels (mg/dL) were monitored.
In the next data set the test system is 786-O. In words: Cell viability assay (CellTiter-Glo), 786-O. The data set is classed as cell-based, human.
Data set [4] relates to mTORC1 and mTORC2 signaling (pS6, p4E-BP1, pAkt S473). The data set can be described thus: Time-course effects on mTORC1 and mTORC2 signaling in SNU-449. The class given is cell-based, human. As to conditions: 0.33-24 h. Here is the method:
Cellular Signaling Effects of Class mTOR Inhibitors. Cells were seeded in 60 mm cell culture dishes and incubated 1-2 days until 70-90% confluency. Cells were treated with compound solution in DMSO (1000×) and incubated at 37° C. in a 5% CO2 humidified incubator for a given length of time. Whole cell lysates were prepared using RIPA buffer (R^3792) (TEKnova, Hollister, CA USA) with a phosphatase inhibitor cocktail tablet PhosStop and a protease inhibitor cocktail tablet cOmplete Mini (Roche Diagnostics GmbH, Mannheim, Germany). Cell lysates (based on a certain amount of protein determined by Pierce BCA Protein Assay Kit (PI-23225) (Thermo Fisher Scientific Inc., Waltham, MA USA)) were electrophoresed using a Criterion Tris-HCl gel 4-20% (Bio-Rad Laboratories, Hercules, CA USA) and transferred to a nitrocellulose membrane (162-0115) (Bio-Rad Laboratories, Hercules, CA USA). After incubation for more than 1 h with a blocking buffer at room temperature, membranes were labeled with primary antibodies by overnight incubation at 4° C., followed by 1 hour incubation with horseradish peroxidase-conjugated (HRP-conjugated) secondary antibodies at room temperature. The following antibodies were used for immunoblot: phospho-Akt (S473) (#9271), phospho-Akt (T308) (#2965), total-Akt (#9272), phospho-S6 (Ser240/Ser244) (#2215L), S6 ribosomal protein (#2217), phospho-4E-BP1 (T37/T46) (#2855), total 4E-BP1 (#9644) (Cell Signaling Technology, Inc., Danvers, MA USA), FKBP12 (sc-28814) mouse β-actin (sc-8432) (Santa Cruz Biotechnology, Inc., Dallas, Texas USA), anti-rabbit IgG conjugated with horseradish peroxidase (HRP) (#7074), and anti-mouse IgG conjugated with HRP (#7076) (Cell Signaling Technology, Inc., Danvers, MA USA). Nitrocellulose membranes were exposed with SuperSignal® West Pico Chemiluminescent Substrate or Femto Maximum Sensitivity Substrate (Thermo Fisher Scientific Inc., Waltham, MA USA) and signals were recorded on a CL-Xposure film (Thermo Fisher Scientific Inc., Waltham, MA USA).

The subject of data set [5] is mTORC1 and mTORC2 downstream signaling (pS6, p4E-BP1, pAkt S473). In words: Downstream signaling of mTOR by immunoblotting, dose dependence, HCT-15 and SNU-449 cells. The class given is cell-based, human. As to conditions: immunoblot at 3 h after compound treatment.
Description: Downstream signaling of mTOR was tested using an immunoblotting method at 3 h after compound treatment.
For another data set, the target named is mTOR (Homo sapiens, UniProt P42345). The data set can be described thus: Potency of the ASi mTOR inhibition. The class given is biochemical.

Description for 786-O: (§1) The cells were grown in appropriate medium (vender recommended) supplemented with 10% heat-inactivated fetal bovine serum (FBS), in tissue culture dishes placed in a humidified incubator maintained at 37° C. in an atmosphere of 5% CO2 and 95% air.
(§2) Cell viability assay. Cells were seeded in a 96-multiwell plate at 3000-4000 cells per well in medium containing FBS and cells were incubated at 37° C. overnight. After 18-20 h, compounds in 10×DMSO solution (n=3) were added to the cells and were incubated for additional 3 days in a humidified incubator in an atmosphere of 5% CO2 and 95% air. After treatment of Cell Titer-Glo® luminescent cell viability assay reagent (Promega Corporation, Madison, WI USA), the luminescence value was recorded using SpectraMax M5 Multi-Mode Microplate Readers (Molecular Devices, LLC, Sunnyvale, CA USA). Concentration response curves were generated on GraphPad Prism (GraphPad Software, La Jolla, CA USA) by calculating the decrease in luminescence values in compound-treated samples relative to the DMSO controls.
(§3) Anti-proliferative effects of compounds were evaluated in human colorectal cancer HCT-15 cells (mutation: KRAS, PIK3CA), human hepatocellular carcinoma SNU-449 (mutation: TP53, CDKN2A), SNU-398 (mutation: CTNNB 1), SNU-182 (mutation: TP53) and renal adenocarcinoma 786-O (mutation: VHL, PTEN, TP53, CDKN2A) in 72 h after compound treatment.
Description for SNU-182: as §1, §2, §3
Description for SNU-398: as §1, §2, §3

On to `COc1ccc2[nH]c(-c3nn(CCCCNC(=O)CCOCCOCCOCCOCCOCCOCCOCCOCCn4cc(COCCO[C@@H]5CC[C@@H](C[C@@H](C)[C@@H]6CC(=O)[C@H](C)/C=C(\C)[C@@H](O)[C@@H](OC)C(=O)[C@H](C)C[C@H](C)/C=C/C=C/C=C(\C)[C@@H](OC)C[C@@H]7CC[C@@H](C)[C@@](O)(O7)C(=O)C(=O)N7CCCC[C@H]7C(=O)O6)C[C@H]5OC)nn4)c4ncnc(N)c34)cc2c1` [Compound E1010], for which, in data set [1], the “inhibition of P-4EBP1” value was “little or no inhibition”, the “inhibition of pS6 (S240/244)” value was “inhibition” and the mTORC1 inhibition result is “only partially inhibits mTORC1”.

Regarding `CO[C@H]1C[C@@H]2CC[C@@H](C)[C@@](O)(O2)C(=O)C(=O)N2CCCC[C@H]2C(=O)O[C@H]([C@H](C)C[C@@H]2CC[C@@H](O)[C@H](OC)C2)CC(=O)[C@H](C)/C=C(\C)[C@@H](O)[C@@H](OC)C(=O)[C@H](C)C[C@H](C)/C=C/C=C/C=C/1C` [Rapamycin, (3 S,6R,7E,9R,10R,12R,14S,15E,17E,19E,21S,23 S,26R,27R,34aS)-9,10,12,13,14,21,22,23,24,25,26,27,32,33,34,34a-hexadecahydro-9,27-dihydroxy-3-[(1R)-2-[(1S,3R,4R)-4-hydroxy-3-methoxycyclohexyl]-1-methylethyl]-10,21-dimethoxy-6,8,12,14,20,26-hexamethyl-23,27-epoxy-3H-pyrido[2,1-c][1,4]-oxaazacyclohentriacontine-1,5,11,28,29(4H,6H,31H)-pentone, reference compound], the inhibition at 10 µM in the data set with SNU-449 (Homo sapiens) was less than 25%; with HCT-15 (Homo sapiens, read-out: % inhibition at 10 μM HCT-15, 10 μM), 25 to 50%; in the data set on SNU-398 (Homo sapiens), 25 to 50%; in the data set on SNU-182 (Homo sapiens), less than 25%; with 786-O (Homo sapiens, 786-0, read-out: % inhibition at 10 μM 786-O, 10 μM), less than 25%. Further, the “maintenance of effects after washout” value in data set [2] is listed as “maintained longer after washout compared to asTORi”. Besides, the blood glucose level result in data set [3] is reported as “no increase in blood glucose levels”. Besides, the “p4E-BP1 inhibition, time course” value in [4] is given as “moderate inhibitory activity”. The “phosphorylation of Akt S473, time course” value in data set [4] was “transient feedback activation on Akt S473 at 1 and 3 h, and then a slight inhibition was observed at 24 h”.

Take `CO[C@H]1C[C@@H]2CC[C@@H](C)[C@@](O)(O2)C(=O)C(=O)N2CCCC[C@H]2C(=O)O[C@H]([C@H](C)C[C@@H]2CC[C@@H](OCCOCc3cn(CCOCCOCCOCCOCCC(=O)NCCCCn4nc(-c5ccc6oc(N)nc6c5)c5c(N)ncnc54)nn3)[C@H](OC)C2)CC(=O)[C@H](C)/C=C(\C)[C@@H](O)[C@@H](OC)C(=O)[C@H](C)C[C@H](C)/C=C/C=C/C=C/1C` [Compound M-3059, 40-O-(2-((1-(20-(4-amino-3-(2-aminobenzo[d]oxazol-5-yl)-1H-pyrazolo[3,4-d]pyrimidin-1-yl)-15-oxo-3,6,9,12-tetraoxa-16-azaicosyl)-1H-1,2,3-triazol-4-yl)methoxy)ethyl)-rapamycin]: the figures for the inhibition at 10 µM in the data set on SNU-449 (Homo sapiens), in the data set with SNU-398 (Homo sapiens) and with SNU-182 (Homo sapiens) were less than 25%, 50 to 100% and less than 25%, respectively.

Take `CO[C@H]1C[C@@H]2CC[C@@H](C)[C@@](O)(O2)C(=O)C(=O)N2CCCC[C@H]2C(=O)O[C@H]([C@H](C)C[C@@H]2CC[C@@H](OCCOCc3cn(CCCCn4nc(-c5ccc6oc(N)nc6c5)c5c(N)ncnc54)nn3)[C@H](OC)C2)CC(=O)[C@H](C)/C=C(\C)[C@@H](O)[C@@H](OC)C(=O)[C@H](C)C[C@H](C)/C=C/C=C/C=C/1C` [Compound M-1115, 40-O-(2-((1-(4-(4-amino-3-(2-aminobenzo[d]oxazol-5-yl)-^1H-pyrazolo[3,4-d]pyrimidin-1-yl)butyl)-1H-1,2,3-triazol-4-yl)methoxy)ethyl)-rapamycin]: the EC50 in the data set on SNU-449 (Homo sapiens, SNU-449, 72 h) was greater than 100 nM; in the data set with HCT-15 (Homo sapiens), greater than 100 nM; in the data set on SNU-398 (Homo sapiens), 10 to 50 nM; in the data set on SNU-182 (Homo sapiens), 10 to 50 nM; in the data set on 786-O (Homo sapiens, 786-0, 72 h after compound treatment) it was greater than 100 nM. Moreover, the p4E-BP1 inhibition result in data set [5] is reported as “weaker p4E-BP1 inhibition”.

The molecule `COc1ccc2[nH]c(-c3nn(C(C)C)c4ncnc(N)c34)cc2c1` [MeO-PP242] had an IC50 on mTOR greater than 10000 nM.

With `COC1CC2CCC(C)C(O)(O2)C(=O)C(=O)N2CCCCC2C(=O)OC(C(C)CC2CCC(OCCOCc3cn(CCOCCOCCOCCOCCOCCOCCOCCNC(=O)CCCCn4nc(-c5ccc6oc(N)nc6c5)c5c(N)ncnc54)nn3)C(OC)C2)CC(=O)C(C)C=C(C)C(O)C(OC)C(=O)C(C)CC(C)C=CC=CC=C1C` (stereo not shown) [Compound M-1111, 40-O-(2-((1-(29-(4-amino-3-(2-aminobenzo[d]oxazol-5-yl)-1H-pyrazolo[3,4-d]pyrimidin-1-yl)-25-oxo-3,6,9,12,15,18,21-heptaoxa-24-azanonacosyl)-1H-1,2,3-triazol-4-yl)methoxy)ethyl)-rapamycin], the “% inhibition at 10 μM SNU-449” value in the data set with SNU-449 (10 μM, SNU-449) was “++ (25% < ++ ≤ 50%)”. The EC50 in the data set with SNU-449 (SNU-449, 72 h after compound treatment) was less than 10 nM; in the data set on HCT-15 it was 10 to 50 nM; in the data set with SNU-398, less than 10 nM; with SNU-182 it was less than 10 nM; in the data set on 786-O (72 h after compound treatment), 10 to 50 nM. Further, the “mTORC1/2 downstream inhibition (pS6, p4E-BP1 and pAkt S473)” value in data set [5] was “stronger inhibition of mTORC1 signaling (pS6 and p4E-BP1) compared to mTORC2 downstream Akt S473 phosphorylation”. Also, the p4E-BP1 inhibition result in [5] is on record as “complete p4E-BP1 inhibition at drug concentrations in which pAkt S473 is not inhibited”. The “% inhibition at 10 μM HCT-15” value in the data set with HCT-15 (10 μM) was “+++ (50% < +++ ≤ 100%)”. The “% inhibition at 10 μM SNU-398” value in the data set on SNU-398 (10 μM) is on record as “+++ (50% < +++ ≤ 100%)”. The “% inhibition at 10 μM SNU-182” value in the data set with SNU-182 (10 μM) was “++ (25% < ++ ≤ 50%)”. The “% inhibition at 10 μM 786-O” value in the data set with 786-O (10 μM) is recorded as “+++ (50% < +++ ≤ 100%)”.

As a reminder, the inhibition is the change of the read-out against control, counted positive when it falls. In general, EC50 refers to the concentration that produces a half-maximal response. Broadly, the IC50 is the point on the concentration scale where inhibition reaches its midpoint. High values mean a need for much substance, low ones inhibition by little substance.
